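Interpolation was linear, between the two tested concentrations surrounding the appropriate level; five concentrations were tested over 48 hours in 96-well plates. GI50: concentration for 50% inhibition of growth.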 Calls of active or inactive are those of the source. Rule as the data show it: active = GI50 up to about 1.1 µM and inactive = higher.
Tests used:
Assay in all cases: NCI tumour cell line growth inhibition, 48 h
UO-31 = system: UO-31
HL-60 = system: HL-60
U-251 = system: U-251
MDA-N = system: MDA-N
HOP-92 = system: HOP-92
SF-539 = system: SF-539
RXF 393 = system: RXF 393
T47D = system: T47D
MCF7 = system: MCF7
OVCAR-5 = system: OVCAR-5
DU-145 = system: DU-145
SK-MEL-28 = system: SK-MEL-28
NCI-H226 = system: NCI-H226
A549 = system: A549
K562 = system: K562
NCI/ADR-RES = system: NCI/ADR-RES
A498 = system: A498
SF-268 = system: SF-268
KM12 = system: KM12
ACHN = system: ACHN
COLO 205 = system: COLO 205
EKVX = system: EKVX
LOX IMVI = system: LOX IMVI
TK-10 = system: TK-10
SW-620 = system: SW-620
IGROV-1 = system: IGROV-1
MOLT-4 = system: MOLT-4
OVCAR-8 = system: OVCAR-8
MDA-MB-231 = system: MDA-MB-231
RPMI-8226 = system: RPMI-8226
UACC-62 = system: UACC-62
OVCAR-4 = system: OVCAR-4
SF-295 = system: SF-295
NCI-H522 = system: NCI-H522
OVCAR-3 = system: OVCAR-3
SK-MEL-5 = system: SK-MEL-5
Hs-578T = system: Hs-578T
SK-OV-3 = system: SK-OV-3
SN12C = system: SN12C
NCI-H460 = system: NCI-H460
786-0 = system: 786-0
SR = system: SR
CCRF-CEM = system: CCRF-CEM
HOP-62 = system: HOP-62
PC-3 = system: PC-3
HT-29 = system: HT-29
SNB-19 = system: SNB-19
SNB-75 = system: SNB-75
HCT-15 = system: HCT-15
SK-MEL-2 = system: SK-MEL-2
UACC-257 = system: UACC-257
CAKI-1 = system: CAKI-1
NCI-H23 = system: NCI-H23
HCT-116 = system: HCT-116
MDA-MB-435 = system: MDA-MB-435
Malme-3M = system: Malme-3M
M14 = system: M14
BT-549 = system: BT-549
HCC 2998 = system: HCC 2998

SMILES: COc1cc(NS(C)(=O)=O)ccc1NCc1c[nH]c2ccc3nc(C)ccc3c12
- GI50 (UO-31): 28.6 µM (inactive)
- GI50 (HL-60): 8.45 µM (inactive)
- GI50 (U-251): 77.6 µM (inactive)
- GI50 (MDA-N): 41.2 µM (inactive)
- GI50 (HOP-92): 40.6 µM (inactive)
- GI50 (SF-539): 78.2 µM (inactive)
- GI50 (RXF 393): 22.5 µM (inactive)
- GI50 (T47D): 24.2 µM (inactive)
- GI50 (MCF7): 36.1 µM (inactive)
- GI50 (OVCAR-5): 39.5 µM (inactive)
- GI50 (DU-145): 32.1 µM (inactive)
- GI50 (SK-MEL-28): > 100 µM (inactive)
- GI50 (NCI-H226): 45.7 µM (inactive)
- GI50 (A549): > 100 µM (inactive)
- GI50 (K562): 0.594 µM (active)
- GI50 (NCI/ADR-RES): > 100 µM (inactive)
- GI50 (A498): 20.3 µM (inactive)
- GI50 (SF-268): 28.1 µM (inactive)
- GI50 (KM12): 48.9 µM (inactive)
- GI50 (ACHN): 33.9 µM (inactive)
- GI50 (COLO 205): 55 µM (inactive)
- GI50 (EKVX): > 100 µM (inactive)
- GI50 (LOX IMVI): 49.5 µM (inactive)
- GI50 (TK-10): 38.7 µM (inactive)
- GI50 (SW-620): 30.2 µM (inactive)
- GI50 (IGROV-1): 73.6 µM (inactive)
- GI50 (MOLT-4): 2.9 µM (inactive)
- GI50 (OVCAR-8): 50.1 µM (inactive)
- GI50 (MDA-MB-231): 61.1 µM (inactive)
- GI50 (RPMI-8226): 17.1 µM (inactive)
- GI50 (UACC-62): 40.6 µM (inactive)
- GI50 (OVCAR-4): 44.3 µM (inactive)
- GI50 (SF-295): 48.8 µM (inactive)
- GI50 (NCI-H522): 28.4 µM (inactive)
- GI50 (OVCAR-3): 27.6 µM (inactive)
- GI50 (SK-MEL-5): 42 µM (inactive)
- GI50 (Hs-578T): 72.1 µM (inactive)
- GI50 (SK-OV-3): 96.4 µM (inactive)
- GI50 (SN12C): 60.5 µM (inactive)
- GI50 (NCI-H460): 68.1 µM (inactive)
- GI50 (786-0): 30.4 µM (inactive)
- GI50 (SR): 4.89 µM (inactive)
- GI50 (CCRF-CEM): 17.7 µM (inactive)
- GI50 (HOP-62): 55.5 µM (inactive)
- GI50 (PC-3): 43.9 µM (inactive)
- GI50 (HT-29): 49.5 µM (inactive)
- GI50 (SNB-19): 77.8 µM (inactive)
- GI50 (SNB-75): 22.8 µM (inactive)
- GI50 (HCT-15): 37.9 µM
- GI50 (SK-MEL-2): 23.8 µM (inactive)
- GI50 (UACC-257): 47.8 µM (inactive)
- GI50 (CAKI-1): 20.1 µM (inactive)
- GI50 (NCI-H23): 15.8 µM (inactive)
- GI50 (HCT-116): 42.9 µM (inactive)
- GI50 (MDA-MB-435): 30.2 µM (inactive)
- GI50 (Malme-3M): > 100 µM (inactive)
- GI50 (M14): 56.1 µM (inactive)
- GI50 (BT-549): > 100 µM (inactive)

SMILES: CN(C)CCCN1c2ccccc2Sc2cnccc21
- GI50 (UO-31): > 100 µM (inactive)
- GI50 (HL-60): 74 µM (inactive)
- GI50 (U-251): > 100 µM (inactive)
- GI50 (MDA-N): 64.7 µM (inactive)
- GI50 (HOP-92): 61 µM (inactive)
- GI50 (SF-539): 54.6 µM (inactive)
- GI50 (RXF 393): 83 µM (inactive)
- GI50 (T47D): > 100 µM (inactive)
- GI50 (MCF7): 61 µM (inactive)
- GI50 (OVCAR-5): > 100 µM (inactive)
- GI50 (DU-145): > 100 µM (inactive)
- GI50 (SK-MEL-28): 39.1 µM (inactive)
- GI50 (NCI-H226): 83.2 µM (inactive)
- GI50 (A549): > 100 µM (inactive)
- GI50 (K562): 68.5 µM (inactive)
- GI50 (NCI/ADR-RES): > 100 µM (inactive)
- GI50 (A498): 31 µM (inactive)
- GI50 (SF-268): > 100 µM (inactive)
- GI50 (KM12): > 100 µM (inactive)
- GI50 (ACHN): 52.8 µM (inactive)
- GI50 (COLO 205): 47 µM (inactive)
- GI50 (EKVX): > 100 µM (inactive)
- GI50 (LOX IMVI): 65.2 µM (inactive)
- GI50 (TK-10): 42.4 µM (inactive)
- GI50 (SW-620): > 100 µM (inactive)
- GI50 (IGROV-1): > 100 µM (inactive)
- GI50 (MOLT-4): 60 µM (inactive)
- GI50 (OVCAR-8): > 100 µM (inactive)
- GI50 (MDA-MB-231): 42.1 µM (inactive)
- GI50 (RPMI-8226): 79.1 µM (inactive)
- GI50 (UACC-62): 38.5 µM (inactive)
- GI50 (OVCAR-4): 93.8 µM (inactive)
- GI50 (SF-295): 35.1 µM (inactive)
- GI50 (NCI-H522): 65 µM (inactive)
- GI50 (OVCAR-3): 34 µM (inactive)
- GI50 (SK-MEL-5): 79.8 µM (inactive)
- GI50 (Hs-578T): > 100 µM (inactive)
- GI50 (SK-OV-3): > 100 µM (inactive)
- GI50 (SN12C): 74.1 µM (inactive)
- GI50 (NCI-H460): 32.1 µM (inactive)
- GI50 (786-0): 77.1 µM (inactive)
- GI50 (SR): 34.2 µM (inactive)
- GI50 (CCRF-CEM): 93.5 µM (inactive)
- GI50 (HOP-62): 41.6 µM (inactive)
- GI50 (PC-3): > 100 µM (inactive)
- GI50 (HT-29): 58.6 µM (inactive)
- GI50 (SNB-19): > 100 µM (inactive)
- GI50 (SNB-75): > 100 µM (inactive)
- GI50 (HCT-15): > 100 µM
- GI50 (SK-MEL-2): 28.4 µM (inactive)
- GI50 (UACC-257): 19.7 µM (inactive)
- GI50 (CAKI-1): 63.1 µM (inactive)
- GI50 (HCT-116): 43.7 µM (inactive)
- GI50 (MDA-MB-435): 69.7 µM (inactive)
- GI50 (Malme-3M): > 100 µM (inactive)
- GI50 (M14): 52.2 µM (inactive)
- GI50 (BT-549): > 100 µM (inactive)

SMILES: CCOC(=O)C1=CNC(C(=O)OCC)C1c1cccn1-c1ccccc1 (centres undefined)
- GI50 (UO-31): 20.7 µM (inactive)
- GI50 (U-251): 29.6 µM (inactive)
- GI50 (MDA-N): 20 µM (inactive)
- GI50 (HOP-92): 16.3 µM (inactive)
- GI50 (SF-539): 20.4 µM (inactive)
- GI50 (RXF 393): 19.4 µM (inactive)
- GI50 (T47D): 25.8 µM (inactive)
- GI50 (MCF7): 31.9 µM (inactive)
- GI50 (OVCAR-5): 52.1 µM (inactive)
- GI50 (DU-145): 41.3 µM (inactive)
- GI50 (SK-MEL-28): 28.1 µM (inactive)
- GI50 (NCI-H226): 23.3 µM (inactive)
- GI50 (A549): 33.9 µM (inactive)
- GI50 (K562): 32.8 µM (inactive)
- GI50 (HCC 2998): 28.7 µM (inactive)
- GI50 (NCI/ADR-RES): 22.8 µM (inactive)
- GI50 (A498): 37 µM (inactive)
- GI50 (SF-268): 31.3 µM (inactive)
- GI50 (KM12): 30.8 µM (inactive)
- GI50 (ACHN): 30.5 µM (inactive)
- GI50 (COLO 205): 23.5 µM (inactive)
- GI50 (EKVX): 35.8 µM (inactive)
- GI50 (LOX IMVI): 16.6 µM (inactive)
- GI50 (TK-10): 41.8 µM (inactive)
- GI50 (SW-620): 27.1 µM (inactive)
- GI50 (IGROV-1): 33 µM (inactive)
- GI50 (MOLT-4): 19.8 µM (inactive)
- GI50 (OVCAR-8): 28.8 µM (inactive)
- GI50 (MDA-MB-231): 12.5 µM (inactive)
- GI50 (UACC-62): 24.4 µM (inactive)
- GI50 (OVCAR-4): 46.6 µM (inactive)
- GI50 (SF-295): 24.5 µM (inactive)
- GI50 (NCI-H522): 21.3 µM (inactive)
- GI50 (OVCAR-3): 26.1 µM (inactive)
- GI50 (SK-MEL-5): 17.5 µM (inactive)
- GI50 (Hs-578T): 38.6 µM (inactive)
- GI50 (SN12C): 29.4 µM (inactive)
- GI50 (NCI-H460): 29.4 µM (inactive)
- GI50 (786-0): 32.5 µM (inactive)
- GI50 (SR): 24.8 µM (inactive)
- GI50 (CCRF-CEM): 29.3 µM (inactive)
- GI50 (HOP-62): 58.3 µM (inactive)
- GI50 (PC-3): 18.8 µM (inactive)
- GI50 (HT-29): 23 µM (inactive)
- GI50 (SNB-75): 21.4 µM (inactive)
- GI50 (HCT-15): 40.2 µM
- GI50 (SK-MEL-2): 12.1 µM (inactive)
- GI50 (UACC-257): 35.7 µM (inactive)
- GI50 (CAKI-1): 32.6 µM (inactive)
- GI50 (NCI-H23): 37.7 µM (inactive)
- GI50 (HCT-116): 23.6 µM (inactive)
- GI50 (MDA-MB-435): 21.2 µM (inactive)
- GI50 (M14): 32.9 µM (inactive)
- GI50 (BT-549): 36.7 µM (inactive)
